The text below walks through data of patent US20060241174A1, “Vitamin E tocotrienols inhibition of intracellularly obligate pathogen Chlamydia and methods of use” (priority 2005, published 2006).

Data set [1] concerns LDL. Briefly: LDL levels in hyperlipidemic patients before and after delta-tocotrienol supplementation. The data set is classed as in vivo, human. The procedure:
(§1) In a clinical study, buffy coats from blood samples drawn both before and after delta-tocotrienol supplementation were immunostained for detection of Chlamydia-infected cells. The samples were tested for LDL levels both before and after delta-tocotrienol supplementation.

Data set [2] has as its system Cells in culture.
For data set [3], the system named is Chlamydia. Briefly: Detection of Chlamydia-infected white blood cells in hyperlipidemic patients with delta-tocotrienol supplementation. It counts as in vivo, human. The procedure:
FIG. 6 illustrates detection and quantification of Chlamydia-infected white blood cells in hyperlipidemic patients with delta-tocotrienol supplementation. Buffy coats of hyperlipidemic patients were immunostained, and for each sample, aliquots of 10,000 cells were assessed. A dotplot of a hyperlipidemic patient prior to supplementation with delta-tocotrienol is shown in the left panel, and a dotplot of a hyperlipidemic patient after 2 months of delta-tocotrienol supplementation (100 mg/day) is shown in the right panel.
Flow Cytometry Assessment of WBC: Flow cytometry (FC) quantification of Chlamydia-infected peripheral WBC used PBS rinsed buffy coat (BC) from HP samples. The BC cells were fixed and permeabilized (1% paraformaldehyde and 1% Triton X-100, 10 min. at RT; Aldrich Chemical Company, Inc., Milwaukee, Wis.). BCs were separately incubated for 1 hour with a 1:200 dilution of rabbit anti-Chlamydia primary antibody (Biodesign International, Saco, Me.) followed by a 1 hour incubation with a 1:150 dilution of FITC-conjugated goat anti-rabbit IgG (H+L) (Jackson ImmunoResearch, West Grove, Pa.), PBS rinsed X3, and mono-dispersed by passage through a nylon mesh filter (Lab-Line Instruments Inc, Melrose Park, Ill.). Sufficient WBCs were added to obtain 10,000 cells/tube and samples were analyzed for carriage of Chlamydia-infected cells by FACScan (Becton, Dickinson and Company, Franklin Lakes, N.J.).
Detection of Chlamydia-Infected White Blood Cells (WBC): Smears of whole blood from each 10 ml hyperlipidemic HP blood sample, average donor age 54 years, were fixed with 70% MEOH for subsequent staining. Immunostaining used a 1:125 dilution of rabbit polyclonal anti-Chlamydia EB antibody followed by a 1:125 dilution of TRITC-conjugated goat anti-rabbit antibody (H+L) (Jackson ImmunoResearch, West Grove, Pa.). Slides were incubated at room temperature for 1 hour with each diluted antibody, rinsed, mounted and sealed as described above. Digital images of optical sections through these samples were acquired with a Zeiss LSM 510 Meta Confocal System.
as §1

For data set [4], the target named is T1, 3-hydroxy-3-methylglutaryl coenzyme A (HMG-CoA) reductase (Homo sapiens, UniProt P04035).
T1 sequence (P04035 1-888): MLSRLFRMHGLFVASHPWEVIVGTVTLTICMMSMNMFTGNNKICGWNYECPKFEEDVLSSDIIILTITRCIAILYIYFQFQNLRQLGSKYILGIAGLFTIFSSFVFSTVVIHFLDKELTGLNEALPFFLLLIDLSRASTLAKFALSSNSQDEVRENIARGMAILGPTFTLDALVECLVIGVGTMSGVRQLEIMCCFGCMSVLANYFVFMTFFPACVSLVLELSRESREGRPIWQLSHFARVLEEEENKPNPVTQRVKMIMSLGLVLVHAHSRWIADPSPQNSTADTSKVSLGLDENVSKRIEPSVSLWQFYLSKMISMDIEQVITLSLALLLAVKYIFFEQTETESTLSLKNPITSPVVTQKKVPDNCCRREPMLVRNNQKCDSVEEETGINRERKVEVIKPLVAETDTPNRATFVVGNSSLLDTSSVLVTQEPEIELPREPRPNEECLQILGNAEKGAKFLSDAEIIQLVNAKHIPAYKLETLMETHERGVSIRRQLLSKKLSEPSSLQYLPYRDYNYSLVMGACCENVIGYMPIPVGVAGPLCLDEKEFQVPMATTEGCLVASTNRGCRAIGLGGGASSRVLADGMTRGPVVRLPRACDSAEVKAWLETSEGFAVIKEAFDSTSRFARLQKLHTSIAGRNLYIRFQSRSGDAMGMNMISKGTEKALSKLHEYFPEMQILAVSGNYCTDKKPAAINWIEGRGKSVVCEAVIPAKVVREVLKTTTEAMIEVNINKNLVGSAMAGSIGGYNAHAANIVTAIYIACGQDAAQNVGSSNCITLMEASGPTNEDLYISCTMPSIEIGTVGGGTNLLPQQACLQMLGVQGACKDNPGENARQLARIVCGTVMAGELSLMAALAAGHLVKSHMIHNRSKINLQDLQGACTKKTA
Particulars: delta>gamma>beta>alpha tocotrienol (Tan, 2005); cited from earlier work.

On to delta tocotrienol, for which the “% Decrease in LDL” value in data set [1] (Patient 1 (Chlamydia negative before supplementation)) is on record as 20%; in data set [1] (Patient 2 (Chlamydia positive before supplementation)) it was 7%; in data set [1] (Patient 3 (Chlamydia strong positive before supplementation)), 25%. Besides, the “cell number compared to cells grown in culture medium” value in data set [2] is recorded as “no difference in cell number”. For the same substance, the “Chlamydial Infection Status after Delta-Tocotrienol Supplementation” value in data set [3] (Patient 1, status before: negative) was “negative”; in data set [3] (Patient 2, status before: positive), “negative”; in data set [3] (Patient 3, status before: strong positive), “negative”. The “Chlamydia-infected white blood cells by flow cytometry (FIG. 6)” value in data set [3] (hyperlipidemic patient, 2 months supplementation, 100 mg/day, buffy coat, 10,000 cells) was “reduced the granularity and amount of Chlamydia-infected cells”. The “potency of cholesterol inhibition among tocotrienol isomers” value in data set [4] is listed as “most potent isomer”.
